# Assay results taken from patent US20210380722A1, “COMPOSITIONS AND METHODS FOR THE TREATMENT OF MAJOR DEPRESSIVE DISORDER” (Snake River Bioscience, Inc., priority 2019, published 2021).
# Experiments:
# hippocampal neurons = settings: cited from earlier work; for autophagy: Gulbins et al., Molecular Psychiatry (2018)
# wildtype mice [1] = test: ceramide concentrations in exosomes from blood plasma of stressed mice (mass spectrometry, kinase assay); type: in vivo; settings: corticosterone via drinking water 120 mg/L for 7 days; FIG. 1c
# Description: Corticosterone (Sigma, St. Louis, Mo.) was administered to mice via the drinking water at 120 mg/L for 7 days. In the chronic unpredictable stress model (CUS), the mice were challenged with unpredictable environmental stress for 8 days, i.e., a reversal of the light/dark cycle, 3 h of 45° tilting of the cage twice each week, shaking at 125 rpm, food deprivation for 14 h, predator sounds (15 min) or wet cages (1 h) with two forms of stress per day in a randomized (unpredictable) order. Blood was collected from the heart into heparin-coated needles and tubes immediately after sacrifice by cervical dislocation. Blood plasma was centrifuged at 3500 rpm for 5 min at 4° C. in an Eppendorf centrifuge. […]
# 10 μL of blood plasma or of resuspended exosomes (corresponding to 50 μL plasma) was added to 190 μL H2O and extracted in 600 μL CHCl3:CH3OH:1N HCl (100:100:1, v/v/v). […] Ceramide amounts were determined by comparison with a standard curve; C16 to C24 ceramides were used as substrates.
# Samples were subjected to lipid extraction with 1.5 mL methanol/chloroform (2:1, v:v). […] Dried residues were reconstituted in 200 μL of a 95:5 (v:v) mixture of high-performance liquid chromatography (HPLC) eluents B:A (see below), thoroughly vortexed for 10 min at 1,500 rpm, centrifuged at 2,200×g for 10 min at 4° C., and subjected to mass spectrometric sphingolipid quantification. […]
# untreated mice = test: high dose of corticosterone in untreated mice, symptoms of major depression after 24 h; type: in vivo; settings: 1 mg/kg, data not shown
# Description: To exclude the possibility that investigators were measuring the effects of corticosterone that might have remained in the plasma of these mice, untreated mice were injected with a high dose of corticosterone (1 mg/kg) and the presence of biochemical and behavioral symptoms of major depression after 24 h were assessed.
# wildtype mice [2] = test: C16-ceramide loaded plasma or exosomes injected i.v. into wildtype mice; type: in vivo; settings: plasma or exosomes of untreated mice loaded with 2 μM C16-ceramide, FIG. 4e
# Description: Plasma or exosomes were loaded with C16 ceramide or deuterated C16 ceramide (Avanti Polar Lipids, USA) by incubation of purified exosomes with 2 μM C16 ceramide or 2 deuterated C16 ceramide in 100 μL PBS for 60 min at 37° C. Plasma samples were directly injected i.v. into healthy mice. Exosomes were centrifuged again at 100,000×g for 70 min, the supernatant was discarded, resuspended in PBS and injected i.v. into healthy mice.
# For BrdU staining, mice were injected with BrdU 4 times, once every 2 h. Mice were sacrificed 24 h after the first injection and brains were prepared as above. […]
# Behavioral testing was performed between 3:00 p.m. and 6:00 p.m. under diffuse indirect room light. […] The time was recorded during which the mice explored a new environment before they began eating. […] The time that the mouse spent in each of the separate compartments was recorded. […] In the coat state test, the appearance of the coat (groomed vs unkempt coat) was scored on the head, neck, back, and ventrum with either a zero for normal status or a 1 for unkempt status. […] After 24 h the mice were again placed in a water-filled cylinder for 6 min, and the time of mobility or immobility during the last 4 min of the second trial was recorded. […]
# sphingomyelin synthases = settings: direct inhibition of sphingomyelin synthases; cited from earlier work
smiles,measurement,setting,value
CN(C)CCC=C1c2ccccc2CCc2ccccc21 [amitriptyline],autophagy,hippocampal neurons,induce autophagy in hippocampal neurons
"C[C@]12C[C@H](O)[C@H]3[C@@H](CCC4=CC(=O)CC[C@@]43C)[C@@H]1CC[C@@H]2C(=O)CO [glucocorticosterone, Corticosterone]",ceramide concentrations in exosomes in the blood plasma,wildtype mice [1],marked increase in ceramide concentrations
same,induction of MDD (biochemical and behavioral symptoms of major depression),untreated mice,not sufficient to induce MDD
CNCCC(Oc1ccc(C(F)(F)F)cc1)c1ccccc1 (centres unmarked) [fluoxetine],autophagy,hippocampal neurons,induce autophagy in hippocampal neurons
"CCCCCCCCCCCCC/C=C/[C@@H](O)[C@H](CO)NC(=O)CCCCCCCCCCCCCCC [C16-ceramide, C16 ceramide]",induction of MDD (behavioral changes and neuronal proliferation),wildtype mice [2],sufficient to induce MDD within 24 h
S=C(S)OC1CC2CC1C1CCCC21 (centres unmarked) [D609],autophagy,hippocampal neurons,activation of autophagy
same,ceramide in the endoplasmic reticulum (ER),hippocampal neurons; direct inhibition of sphingomyelin synthases,rapid accumulation of ceramide in the ER
same,stress-induced MDD,sphingomyelin synthases,rapid reversal of stress-induced MDD
